Literature values in patent publication US11229703B2, “Radiotherapy improvements” (NOXOPHARM LIMITED, priority 2016, dated 2022).

Key:
[1] = tested on: cancer, especially metastatic disease involving solid tumours; conditions: compound alone, various clinical trials
[2] = tested on: hormone refractory prostate cancer; conditions: males with hormone refractory prostate cancer given idronoxil ranging from 20 to 400 mg; 6 months from treatment

SMILES: O=c1c(-c2ccc(O)cc2)coc2cc(O)cc(O)c12 [genestein, reference compound]
- complete or partial response to cancer [1]: unable to provide either a complete or partial response

SMILES: Oc1ccc(C2=Cc3ccc(O)cc3OC2)cc1 [idronoxil, 2H-1-Benzopyran-7-0,1,3-(4-hydroxyphenyl)]
- disease progression [2]: disease had progressed in most individuals by 6 months
- complete or partial response to cancer [1]: unable to provide either a complete or partial response
